Measured values from PubChem BioAssay (NCI).
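Test compounds were applied to cells in 96-well plates for 48 hours at 5 doses. GI50 marks 50% less growth. TGI: concentration producing complete growth inhibition.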

Columns and labels:
Experiment in all cases: NCI anticancer screen, dose series, 48 h; in the data active = GI50 below about 0.43 µM; inactive = the rest
[1] = tested on: SF-539 CNS
[2] = tested on: K-562 leukemia
[3] = tested on: KM12 colon
[4] = tested on: SK-MEL-5 melanoma
[5] = tested on: IGROV1 ovarian
[6] = tested on: HOP-62 NSCLC
[7] = tested on: MALME-3M melanoma
[8] = tested on: U251 CNS
[9] = tested on: NCI/ADR-RES ovarian
[10] = tested on: SK-MEL-2 melanoma
[11] = tested on: HCT-116 colon

CCCC(C)c1ccc(OCCCCCCN2CCNCC2)cc1 (centres undefined)
3.07 µM: TGI [8]
3.46 µM: TGI [1]
3.1 µM: TGI [4]
3.97 µM: TGI [2]
inactive: GI50 [1] 1.71 µM | GI50 [2] 1.51 µM | GI50 [3] 1.87 µM | GI50 [4] 1.67 µM | GI50 [5] 1.92 µM | GI50 [6] 4.55 µM | GI50 [7] 1.93 µM | GI50 [8] 1.57 µM | GI50 [9] 2.22 µM
3.85 µM: TGI [3]
3.78 µM: TGI [5]
3.75 µM: TGI [7]
5.37 µM: TGI [9]
24.1 µM: TGI [6]

O=C1C=C(C2OC(CO)C(O)C2O)C(=O)N1 (centres undefined)
> 100 µM: TGI [1] | TGI [2] | TGI [10] | TGI [3] | TGI [11] | TGI [4] | TGI [5] | TGI [6] | TGI [7] | TGI [8] | TGI [9]

CN(C)CCNC(=O)c1cccc2c(=O)c3ccccc3oc12
98.9 µM: TGI [10]
97.5 µM: TGI [6]
64.3 µM: TGI [7]
60.5 µM: TGI [4]
> 100 µM: TGI [1] | TGI [2] | TGI [3] | TGI [11] | TGI [5] | TGI [8]
> 79.9 µM: TGI [9]

O=C(c1ccccc1)c1ccc2n[se]nc2c1
> 100 µM: TGI [2] | TGI [10] | TGI [3] | TGI [4] | TGI [5] | TGI [7] | TGI [8]
43 µM: TGI [1]

CC(=O)C(C(c1ccccc1)N1CCOCC1)N1CCOCC1 (centres undefined)
> 100 µM: TGI [1] | TGI [2] | TGI [10] | TGI [3] | TGI [11] | TGI [4] | TGI [5] | TGI [6] | TGI [7] | TGI [8] | TGI [9]

CCOP(=Nc1ccc(N(C)C)cc1)(OCC)OCC
> 100 µM: TGI [2] | TGI [10] | TGI [3] | TGI [11] | TGI [4] | TGI [5] | TGI [6] | TGI [7] | TGI [8] | TGI [9]

CC1=C2C(O)C(C(C)C(=O)N(C)C)CCC2(C)C=CC1=O (centres undefined)
> 100 µM: TGI [1] | TGI [2] | TGI [10] | TGI [3] | TGI [11] | TGI [4] | TGI [5] | TGI [6] | TGI [8] | TGI [9]

Cc1ccc(S(=O)(=O)Nc2cccc3c(=O)[nH]cnc23)cc1
> 100 µM: TGI [1] | TGI [2] | TGI [10] | TGI [3] | TGI [11] | TGI [4] | TGI [5] | TGI [6] | TGI [7] | TGI [8]
